{"source": "paper PMC4460958", "about": "(Frontiers in Neurology, 2015)", "molecular_target": "T1, human dopamine transporter (hDAT) (Homo sapiens, UniProt Q01959)", "T1 construct": "gene SLC6A3", "T1 sequence (Q01959 whole entry)": "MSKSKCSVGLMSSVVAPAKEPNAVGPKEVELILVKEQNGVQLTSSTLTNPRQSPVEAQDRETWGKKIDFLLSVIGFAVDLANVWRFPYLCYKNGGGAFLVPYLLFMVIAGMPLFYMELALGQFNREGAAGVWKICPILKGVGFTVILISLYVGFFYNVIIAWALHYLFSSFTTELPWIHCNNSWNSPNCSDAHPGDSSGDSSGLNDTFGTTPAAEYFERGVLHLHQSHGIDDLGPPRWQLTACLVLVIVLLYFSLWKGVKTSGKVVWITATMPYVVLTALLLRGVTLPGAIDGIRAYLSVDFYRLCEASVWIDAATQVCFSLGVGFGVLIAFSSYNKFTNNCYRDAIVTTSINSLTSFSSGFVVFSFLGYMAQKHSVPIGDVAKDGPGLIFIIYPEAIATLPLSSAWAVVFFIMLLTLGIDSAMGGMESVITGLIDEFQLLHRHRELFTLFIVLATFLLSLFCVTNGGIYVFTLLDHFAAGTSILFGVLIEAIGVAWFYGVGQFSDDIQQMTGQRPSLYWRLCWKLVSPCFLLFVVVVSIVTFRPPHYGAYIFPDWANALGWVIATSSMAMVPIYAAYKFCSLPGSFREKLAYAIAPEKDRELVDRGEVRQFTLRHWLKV", "data": [{"smiles": "NCCc1ccc(O)c(O)c1", "note": "[DA, dopamine]", "values": [{"measurement": "3H-dopamine uptake kinetics (Km, Vmax) in PAE cells stably expressing hDAT", "value": "Michaelis–Menten non-linear regression analysis was performed, providing transporter dopamine affinity (Km) and capacity (Vmax) for each condition"}]}]}
